This is an account of results in US20210403443A1, “SUBSTITUTED 1,2,4-OXADIAZOLE, ITS APPLICATION AND A PHARMACEUTICAL PREPARATION COMPRISING IT” (SVENOX PHARMACEUTICALS LLC, priority 2018, published 2021).

SMILES strings stand for the structures. Values after ≈ are worked out from the molar mass of the structure shown.

Assay in all cases: microbe, parasite or virus in culture
What all share (type): cell-based

The subject of assay [1] is M. tuberculosis MDR strain 7357/1998.
Assay [2] has as its system M. tuberculosis MDR strain Praha 131.
Assay [3] concerns M. tuberculosis MDR strain 9449/2007.
Assay [4] deals with M. tuberculosis MDR strain 8666/2010.
The subject of assay [5] is M. tuberculosis MDR strain Praha 1.
In assay [6] the test system is M. tuberculosis MDR strain 234/2005.
For assay [7], the system named is M. tuberculosis MDR strain Praha 4.
The mark [8] stands for this setting: Mycobacterium tuberculosis, 336 h, read-out: Minimum inhibiting concentration of substances with general formula I.

Consider `O=[N+]([O-])c1cc(CSc2nc(-c3cccc(Cl)c3)no2)cc([N+](=O)[O-])c1` [Compound 5], for which the MIC in assay [1] (setting [8]) amounted to 1 µM (≈ 0.393 µg/mL); in assay [2] (setting [8]), 1 µM (≈ 0.393 µg/mL); in assay [3] (setting [8]), 1 µM (≈ 0.393 µg/mL); in assay [4] (setting [8]) it was 0.5 µM (≈ 0.196 µg/mL); in assay [5] (setting [8]), 1 µM (≈ 0.393 µg/mL); in assay [6] (setting [8]), 0.5 µM (≈ 0.196 µg/mL). Moreover, in assay [7] (setting [8]), the MIC turned out to be 0.5 µM (≈ 0.196 µg/mL).
For the molecule `CC[C@@H](CO)NCCN[C@@H](CC)CO` [Etambutol], the “Minimum inhibiting concentration of commonly used antibiotics and antituberculosis medicaments” value stood at 19.6 R μmol · l^−1 in assay [1]; 39.2 R μmol · l^−1 in assay [2]; 9.8 C μmol · l^−1 in assay [3]; 19.6 R μmol · l^−1 in assay [4]; 39.2 R μmol · l^−1 in assay [5]; 19.6 R μmol · l^−1 in assay [6]. Moreover, the “Minimum inhibiting concentration of commonly used antibiotics and antituberculosis medicaments” value in assay [7] is recorded as 19.6 R μmol · l^−1. For the same molecule, the “strain resistant or sensitive to the drug” value in assay [1] is recorded as 19.6 R; in assay [2], 39.2 R; in assay [3], 9.8 C; in assay [4] it was 19.6 R; in assay [5], 39.2 R; in assay [6], 19.6 R. For the same molecule, the “strain resistant or sensitive to the drug” value in assay [7] is 19.6 R.
